Tests used:
Assay type in all cases: in vivo
[1] = system: Ipomoea hederacea (IPOHE); test: Pre-emergence herbicidal glasshouse test on Ipomoea hederacea; details: for PRE Application IPOHE herbicidal damage (five point scale): pre-emergence, 1000 g/h, evaluated after 13 days
How it was run: (§1)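 Plants sprayed 1 day (pre-emergence) or 8 days (post-emergence) after sowing with compound at 1000 g/h in acetone/water 50:50 with 0.5% Tween 20; glasshouse 24/16° C, 14 h light, 65% humidity. Damage assessed after 13 days, scored 1–5 (5 = 80-100%, 1 = 0-19%).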

[2] = system: Solanum nigrum (SOLNI); test: Post-emergence herbicidal glasshouse test on Solanum nigrum; details: for POST Application SOLNI herbicidal damage (five point scale): post-emergence, 1000 g/h, evaluated after 13 days
How it was run: as §1

[3] = system: Setaria faberi (SETFA); test: Pre-emergence herbicidal glasshouse test on Setaria faberi; details: for PRE Application SETFA herbicidal damage (five point scale): pre-emergence, 1000 g/h, evaluated after 13 days
How it was run: as §1

[4] = system: Ipomoea hederacea (IPOHE); test: Post-emergence herbicidal glasshouse test on Ipomoea hederacea; details: for POST Application IPOHE herbicidal damage (five point scale): post-emergence, 1000 g/h, evaluated after 13 days
How it was run: as §1

[5] = system: Echinochloa crus-galli (ECHCG); test: Pre-emergence herbicidal glasshouse test on Echinochloa crus-galli; details: for PRE Application ECHCG herbicidal damage (five point scale): pre-emergence, 1000 g/h, evaluated after 13 days
How it was run: as §1

[6] = system: Solanum nigrum (SOLNI); test: Pre-emergence herbicidal glasshouse test on Solanum nigrum; details: for PRE Application SOLNI herbicidal damage (five point scale): pre-emergence, 1000 g/h, evaluated after 13 days
How it was run: as §1

[7] = system: Setaria faberi (SETFA); test: Post-emergence herbicidal glasshouse test on Setaria faberi; details: for POST Application SETFA herbicidal damage (five point scale): post-emergence, 1000 g/h, evaluated after 13 days
How it was run: as §1

[8] = system: Amaranthus retoflexus (AMARE); test: Post-emergence herbicidal glasshouse test on Amaranthus retoflexus; details: for POST Application AMARE herbicidal damage (five point scale): post-emergence, 1000 g/h, evaluated after 13 days
How it was run: as §1

[9] = system: Alopecurus myosuroides (ALOMY); test: Pre-emergence herbicidal glasshouse test on Alopecurus myosuroides; details: for PRE Application ALOMY herbicidal damage (five point scale): pre-emergence, 1000 g/h, evaluated after 13 days
How it was run: as §1

[10] = system: Alopecurus myosuroides (ALOMY); test: Post-emergence herbicidal glasshouse test on Alopecurus myosuroides; details: for POST Application ALOMY herbicidal damage (five point scale): post-emergence, 1000 g/h, evaluated after 13 days
How it was run: as §1

[11] = system: Amaranthus retoflexus (AMARE); test: Pre-emergence herbicidal glasshouse test on Amaranthus retoflexus; details: for PRE Application AMARE herbicidal damage (five point scale): pre-emergence, 1000 g/h, evaluated after 13 days
How it was run: as §1

[12] = system: Echinochloa crus-galli (ECHCG); test: Post-emergence herbicidal glasshouse test on Echinochloa crus-galli; details: for POST Application ECHCG herbicidal damage (five point scale): post-emergence, 1000 g/h, evaluated after 13 days
How it was run: as §1

SMILES | PRE Application IPOHE herbicidal damage (five point scale) [1] | POST Application SOLNI herbicidal damage (five point scale) [2] | PRE Application SETFA herbicidal damage (five point scale) [3] | POST Application IPOHE herbicidal damage (five point scale) [4] | PRE Application ECHCG herbicidal damage (five point scale) [5] | PRE Application SOLNI herbicidal damage (five point scale) [6] | POST Application SETFA herbicidal damage (five point scale) [7] | POST Application AMARE herbicidal damage (five point scale) [8] | PRE Application ALOMY herbicidal damage (five point scale) [9] | POST Application ALOMY herbicidal damage (five point scale) [10] | PRE Application AMARE herbicidal damage (five point scale) [11] | POST Application ECHCG herbicidal damage (five point scale) [12] | other results
COc1ccc(Cn2ncc(-c3ccc(Cl)cc3S(C)(=O)=O)c(O)c2=O)cc1 [Compound 2.008] | 3 (3=40-59% damage) | 5 (5=80-100% damage) | 2 (2=20-39% damage) | 5 (5=80-100% damage) | 5 (5=80-100% damage) | 5 (5=80-100% damage) | 5 (5=80-100% damage) | 5 (5=80-100% damage) | 4 (4=60-79% damage) | 3 (3=40-59% damage) | 5 (5=80-100% damage) | 5 (5=80-100% damage) | 
CC#Cc1ccc(-c2cnn(C)c(=O)c2O)c(S(C)(=O)=O)c1 [Compound 2.029] | 1 (1=0-19% damage) | 5 (5=80-100% damage) | 3 (3=40-59% damage) | 5 (5=80-100% damage) | 5 (5=80-100% damage) | 5 (5=80-100% damage) | 5 (5=80-100% damage) | 5 (5=80-100% damage) | 5 (5=80-100% damage) | 5 (5=80-100% damage) | 5 (5=80-100% damage) | 5 (5=80-100% damage) | 
Cn1ncc(-c2cc3cccnc3nc2C(F)(F)F)c(O)c1=O [Compound 1.039] | 5 (5=80-100% damage) | 5 (5=80-100% damage) | 3 (3=40-59% damage) | 5 (5=80-100% damage) | 5 (5=80-100% damage) | 4 (4=60-79% damage) | 5 (5=80-100% damage) | 5 (5=80-100% damage) | 2 (2=20-39% damage) | 4 (4=60-79% damage) | 5 (5=80-100% damage) | 5 (5=80-100% damage) | 
Cc1c(-c2c(C(C)C)nn(C)c(=O)c2O)ccc(S(C)(=O)=O)c1C1=NOCC1 [Compound 2.024] | 4 (4=60-79% damage) | 5 (5=80-100% damage) | 4 (4=60-79% damage) | 5 (5=80-100% damage) | 5 (5=80-100% damage) | 4 (4=60-79% damage) | 5 (5=80-100% damage) | 5 (5=80-100% damage) | 5 (5=80-100% damage) | 5 (5=80-100% damage) | 5 (5=80-100% damage) | 5 (5=80-100% damage) | 
Cn1ncc(-c2ccccc2C(F)(F)F)c(O)c1=O [Compound 1.116] | 1 (1=0-19% damage) | 5 (5=80-100% damage) | 2 (2=20-39% damage) | 4 (4=60-79% damage) | 1 (1=0-19% damage) | 3 (3=40-59% damage) | 2 (2=20-39% damage) | 4 (4=60-79% damage) | 2 (2=20-39% damage) | 1 (1=0-19% damage) | 5 (5=80-100% damage) | 2 (2=20-39% damage) | 
CCCS(=O)(=O)Oc1c(-c2ccc(C(F)(F)F)cc2S(C)(=O)=O)cnn(C)c1=O [Compound 3.005, [2-methyl-5-[2-methylsulfonyl-4-(trifluoromethyl)phenyl]-3-oxo-pyridazin-4-yl]propane-1-sulfonate] | 4 (4=60-79% damage) | 5 (5=80-100% damage) | 5 (5=80-100% damage) | 5 (5=80-100% damage) | 5 (5=80-100% damage) | 5 (5=80-100% damage) | 5 (5=80-100% damage) | 5 (5=80-100% damage) | 5 (5=80-100% damage) | 5 (5=80-100% damage) | 5 (5=80-100% damage) | 5 (5=80-100% damage) | 
CS(=O)(=O)c1ccccc1-c1cnn(CC(F)F)c(=O)c1O [Compound 2.012] | 5 (5=80-100% damage) | 5 (5=80-100% damage) | 5 (5=80-100% damage) | 5 (5=80-100% damage) | 5 (5=80-100% damage) | 5 (5=80-100% damage) | 5 (5=80-100% damage) | 5 (5=80-100% damage) | 5 (5=80-100% damage) | 5 (5=80-100% damage) | 5 (5=80-100% damage) | 5 (5=80-100% damage) | 
Cc1ccc(-c2c(C(F)(F)F)ccn(-c3cnn(C)c(=O)c3O)c2=O)cc1 [Compound 7.006] | 2 (2=20-39% damage) | 5 (5=80-100% damage) | 4 (4=60-79% damage) | 3 (3=40-59% damage) | 5 (5=80-100% damage) | 5 (5=80-100% damage) | 3 (3=40-59% damage) | 4 (4=60-79% damage) | 3 (3=40-59% damage) | 3 (3=40-59% damage) | 5 (5=80-100% damage) | 5 (5=80-100% damage) | 
CCCn1c(-c2cccc(Cl)c2)ncc(-c2cnn(C)c(=O)c2O)c1=O [Compound 10.002] |  |  |  |  |  |  |  |  |  |  |  |  | PRE Application IPOHE ([1]; pre-emergence application, Ipomoea hederacea, damage score 1-5): 1 (1=0-19% damage); POST Application SOLNI ([2]; post-emergence application, Solanum nigrum, damage score 1-5): 5 (5=80-100% damage); PRE Application SETFA ([3]; pre-emergence application, Setaria faberi, damage score 1-5): 1 (1=0-19% damage); POST Application IPOHE ([4]; post-emergence application, Ipomoea hederacea, damage score 1-5): 4 (4=60-79% damage); PRE Application ECHCG ([5]; pre-emergence application, Echinochloa crus-galli, damage score 1-5): 1 (1=0-19% damage); PRE Application SOLNI ([6]; pre-emergence application, Solanum nigrum, damage score 1-5): 1 (1=0-19% damage); POST Application SETFA ([7]; post-emergence application, Setaria faberi, damage score 1-5): 1 (1=0-19% damage); POST Application AMARE ([8]; post-emergence application, Amaranthus retoflexus, damage score 1-5): 5 (5=80-100% damage); PRE Application ALOMY ([9]; pre-emergence application, Alopecurus myosuroides, damage score 1-5): 1 (1=0-19% damage); POST Application ALOMY ([10]; post-emergence application, Alopecurus myosuroides, damage score 1-5): 1 (1=0-19% damage); PRE Application AMARE ([11]; pre-emergence application, Amaranthus retoflexus, damage score 1-5): 4 (4=60-79% damage); POST Application ECHCG ([12]; post-emergence application, Echinochloa crus-galli, damage score 1-5): 2 (2=20-39% damage)
CCSC(=O)Oc1c(-c2ccc(C(F)(F)F)cc2S(C)(=O)=O)cnn(C)c1=O [Compound 3.004, [2-methyl-5-[2-methylsulfonyl-4-(trifluoromethyl)phenyl]-3-oxo-pyridazin-4-yl]ethylsulfanylformate] | 5 (5=80-100% damage) | 5 (5=80-100% damage) | 5 (5=80-100% damage) | 5 (5=80-100% damage) | 5 (5=80-100% damage) | 5 (5=80-100% damage) | 5 (5=80-100% damage) | 5 (5=80-100% damage) | 5 (5=80-100% damage) | 5 (5=80-100% damage) | 5 (5=80-100% damage) | 5 (5=80-100% damage) | 

— patent publication US9693556B2, “Herbicidal pyridazinone derivatives” (SYNGENTA LIMITED, priority 2011, dated 2017)
